Measurements from ChEMBL document CHEMBL4145638 (J Med Chem, 2018).
pEC50, pIC50, pKi: −log10 of the molar value.

Legend:
[1] = target: Neuraminidase (Influenza A virus (A/Memphis/1/1971(H3N2)), UniProt P03471); assay: Inhibition of Influenza A virus (A/Paris/908/97 (H3N2)) neuraminidase activity by fluorometric assay
[2] = target: T1, Neuraminidase (Influenza A virus, UniProt B4URF0); assay: Inhibition of Influenza A virus (A/Paris/2590/2009(H1N1)) neuraminidase activity by fluorometric assay
[3] = in vitro; settings: chicken, chicken embryo fibroblasts
[4] = target: T1, Neuraminidase; design: species or system A/Babol/36/2005(H3N2)
[5] = target: T1, Neuraminidase; design: species or system Influenza A virus (A/California/04/2009(H1N1))
[6] = in vitro; settings: human, liver
[7] = in vitro; settings: human, liver microsomes
[8] = in vitro; settings: human, liver microsomes; remark: listed apart in the source
[9] = in vitro; settings: human, liver microsomes; remark: listed apart in the source
[10] = in vitro; settings: human, liver microsomes; remark: listed apart in the source
[11] = Drug metabolism in human liver microsomes assessed as (3R,4R,5S)-4-Acetamido-5-((4(diethylamino)benzyl)amino)-3-(pentan-3-yloxy)cyclohex-1-ene-1-carboxylic acid formation in presence of NADPH by LC/MS/MS analysis; assay type: ADME, microsome
[12] = target: T1, Neuraminidase
[13] = in vitro; settings: dog, MDCK cells
[14] = tested on: Influenza A virus; assay: microbe, parasite or virus in culture; settings: MDCK, 48 h
[15] = target: T1, Neuraminidase; design: species or system A/Anhui/1/2013(H7N9)
[16] = tested on: Influenza A virus; assay: microbe, parasite or virus in culture; settings: A/Puerto Rico/8/1934(H1N1), MDCK, 48 h
[17] = target: Neuraminidase (Influenza A virus (A/Memphis/1/1971(H3N2)), UniProt P03471); assay: Inhibition of Influenza A virus (H3N2) neuraminidase activity
[18] = target: T1, Neuraminidase; assay: Inhibition of Influenza A virus (H1N1) neuraminidase activity
[19] = in vitro; settings: human, plasma
[20] = in vitro; settings: human, plasma; remark: listed apart in the source
[21] = in vitro; settings: human, plasma; remark: listed apart in the source
[22] = tested on: Mus musculus; assay: Acute toxicity in Kunming mouse assessed as change in body weight at 0.5 to 1 g/kg, ig; assay type: organism-based; settings: in vivo, po
[23] = tested on: Influenza A virus
[24] = human, plasma, 2 h, 100 µM
[25] = tested on: Mus musculus; assay: Acute toxicity in Kunming mouse assessed as mortality at 0.5 to 1 g/kg, ig; assay type: organism-based; settings: in vivo, po
[26] = in vitro; settings: human, plasma; remark: listed apart in the source
[27] = Drug level in human liver microsomes treated with Ethyl(3R,4R,5S)-4-acetamido-5-((4-(diethylamino)benzyl)-amino)-3-(pentan-3-yloxy)cyclohex-1-ene-1-carboxylate assessed as compound formation in presence of NADPH by LC/MS/MS analysis; assay type: ADME, microsome
[28] = target: T1, Neuraminidase; assay: Inhibition of Influenza A virus SN33 (H1N1) neuraminidase activity using fluorogenic substrate MU-NANA pre-incubated for 30 mins before fluorogenic substrate addition and measured after 1 hr by spectrofluorometry
[29] = target: Neuraminidase (Influenza A virus (A/Memphis/1/1971(H3N2)), UniProt P03471); assay: Inhibition of Influenza A virus Taiwan/3446/2002 (H3N2) neuraminidase activity using fluorogenic substrate MU-NANA pre-incubated for 30 mins before fluorogenic substrate addition and measured after 1 hr by spectrofluorometry
[30] = in vitro; settings: human, plasma; remark: listed apart in the source

T1 sequence (B4URF0 whole entry): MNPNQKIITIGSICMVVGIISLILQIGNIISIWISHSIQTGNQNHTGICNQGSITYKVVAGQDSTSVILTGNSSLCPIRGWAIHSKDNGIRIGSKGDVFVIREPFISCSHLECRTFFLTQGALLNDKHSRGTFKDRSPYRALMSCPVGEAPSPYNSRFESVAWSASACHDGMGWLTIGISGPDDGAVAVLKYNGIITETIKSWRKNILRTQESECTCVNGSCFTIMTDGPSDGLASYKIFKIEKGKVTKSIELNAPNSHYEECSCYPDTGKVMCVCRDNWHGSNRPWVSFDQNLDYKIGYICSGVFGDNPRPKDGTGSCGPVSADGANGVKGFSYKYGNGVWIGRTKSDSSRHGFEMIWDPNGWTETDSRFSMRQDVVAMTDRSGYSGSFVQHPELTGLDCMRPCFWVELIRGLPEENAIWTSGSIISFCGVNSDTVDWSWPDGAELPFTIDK
Neuraminidase (Influenza A virus (A/Memphis/1/1971(H3N2)), UniProt P03471), sequence (P03471 whole entry): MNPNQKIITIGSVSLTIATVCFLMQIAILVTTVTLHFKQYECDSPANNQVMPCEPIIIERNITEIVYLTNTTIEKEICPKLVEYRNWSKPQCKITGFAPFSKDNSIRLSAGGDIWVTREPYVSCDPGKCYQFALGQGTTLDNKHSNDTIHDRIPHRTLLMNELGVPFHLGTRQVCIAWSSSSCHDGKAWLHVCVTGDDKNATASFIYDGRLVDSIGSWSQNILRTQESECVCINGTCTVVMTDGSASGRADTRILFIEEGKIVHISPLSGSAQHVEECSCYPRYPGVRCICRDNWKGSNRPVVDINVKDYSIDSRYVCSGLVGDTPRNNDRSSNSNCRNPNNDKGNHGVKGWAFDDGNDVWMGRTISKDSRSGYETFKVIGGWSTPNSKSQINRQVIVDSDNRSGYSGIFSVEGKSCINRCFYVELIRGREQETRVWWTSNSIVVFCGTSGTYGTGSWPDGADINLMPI

| Compound | CC50 at 48 h [3] | pIC50 [4] | pIC50 [5] | pIC50 [12] | CC50 at 48 h [13] | pEC50 [14] | pIC50 [15] | pEC50 [16] | also measured |
| --- | --- | --- | --- | --- | --- | --- | --- | --- | --- |
| CC(=O)N[C@H]1[C@H]([C@H](O)[C@H](O)CO)OC(C(=O)O)=C(C/C=C/c2ccc(C)cc2)[C@@H]1O |  |  |  |  |  |  |  |  | pKi [1]: 3.66; pKi [2]: 5.77 |
| CCC(CC)O[C@@H]1C=C(C(=O)O)C[C@H](NCc2ccc(-c3cccs3)cc2)[C@H]1NC(C)=O | > 200000 nM | 6.45 | 7.67 |  |  |  |  |  |  |
| CCOC(=O)C1=C[C@@H](OC(CC)CC)[C@H](NC(C)=O)[C@@H](NCc2ccc(N(CC)CC)cc2)C1 |  |  |  |  |  |  |  |  | CLint scaled at 10 min [6]: 149 mL/min/kg; remaining at 1 h [7]: 87.1%; remaining at 1 h [8]: 0.6%; half-life at 10 min [9]: 8.4 min; microsomal CLint at 10 min [10]: 165 µL/min/mg; Drug metabolism [11]: Metabolite_Detected |
| CCC(CC)O[C@@H]1C=C(C(=O)O)C[C@H](NCc2ccc(N3CCSCC3)cc2)[C@H]1NC(C)=O | > 200000 nM | 7.20 | 7.32 | 7.13 | > 250000 nM | 4.72 | 6.81 | 5.36 |  |
| CCC(CC)O[C@@H]1C=C(C(=O)O)[C@H](n2cc(C(O)CC)nn2)[C@H](N)[C@H]1NC(C)=O (stereo partly drawn) |  |  |  |  |  |  |  |  | pKi [17]: 7.70; pKi [18]: < 7.00 |
| CCC(CC)O[C@@H]1C=C(C(=O)O)C[C@H](NCc2ccc(N(CC)CC)cc2)[C@H]1NC(C)=O | > 200000 nM | 8.98 | 9.26 | 9.46 | > 250000 nM | 5.77 | 8.75 | 7.15 | remaining at 1 h, 100 µM [19]: 120%; CLint scaled at 10 min [6]: < 8.6 mL/min/kg; remaining at 1 h [7]: 95.4%; remaining at 1 h [8]: 82.7%; remaining at 0.5 h, 100 µM [20]: 120%; half-life at 10 min [9]: > 145 min; remaining at 10 min, 100 µM [21]: 118%; Activity [22]: Non-Toxic; pEC50 [23]: 6.21; microsomal CLint at 10 min [10]: < 9.6 µL/min/mg; Stability [24]: 120.7%; Activity [25]: Non-Toxic; remaining at 0 min, 100 µM [26]: 100%; Drug metabolism [27]: Metabolite_Detected |
| CCC(CC)O[C@@H]1C=C(C(=O)O)C[C@H](NCc2ccc(N(CC)c3ccccc3)cc2)[C@H]1NC(C)=O | > 200000 nM | 6.32 | 6.16 | 6.25 |  |  | 5.59 |  |  |
| CCC(CC)O[C@@H]1C=C(C(=O)O)C[C@H](NCc2ccc(N(C)c3ccccc3)cc2)[C@H]1NC(C)=O | > 200000 nM | 8.25 | 7.53 | 8.64 | > 250000 nM | 4.59 | 7.94 | 5.71 |  |
| CCC(CC)O[C@@H]1C=C(C(=O)O)C[C@H](NCc2ccc(N3CCCCC3)cc2)[C@H]1NC(C)=O | > 200000 nM | 7.77 | 7.73 | 7.68 |  |  | 7.39 |  |  |
| CCC(CC)O[C@@H]1C=C(C(=O)O)C[C@H](NCc2ccc(-n3cccn3)cc2)[C@H]1NC(C)=O | > 200000 nM | 6.06 | 6.53 | 6.23 |  |  | 5.04 |  |  |
| CCC(CC)O[C@@H]1C=C(C(=O)O)C[C@H](NCc2ccc(NC(C)=O)cc2)[C@H]1NC(C)=O | > 200000 nM |  |  |  |  |  |  |  |  |
| CCC(CC)O[C@@H]1C=C(C(=O)O)[C@H](n2cc(C(O)CC)nn2)[C@H](NC(=N)N)[C@H]1NC(C)=O (stereo partly drawn) |  |  |  |  |  |  |  |  | pKi [17]: 8.40; pKi [18]: < 7.00 |
| CC(=O)N[C@H]1[C@H]([C@@H](O)[C@@H](O)CO)OC(C(=O)O)=C[C@@H]1NC(=N)NC(=O)CSc1cccc2ccccc12 |  |  |  |  |  |  |  |  | pIC50 [28]: 7.68; pIC50 [29]: 7.60 |
| CCC(CC)O[C@@H]1C=C(C(=O)O)C[C@H](NCc2ccc(N(C)C)cc2)[C@H]1NC(C)=O | > 200000 nM | 8.39 | 8.39 | 8.24 |  |  | 8.08 |  |  |
| CCC(CC)O[C@@H]1C=C(C(=O)O)C[C@H](NCc2ccc(-n3cccc3)cc2)[C@H]1NC(C)=O | > 200000 nM | 6.49 | 7.23 | 6.30 | > 250000 nM | 4.54 | 5.74 | 6.16 |  |
| CCC(CC)O[C@@H]1C=C(C(=O)O)C[C@H](NCc2ccc(Nc3ccccc3)cc2)[C@H]1NC(C)=O | > 200000 nM | 7.51 | 7.18 | 7.56 |  |  | 7.03 |  |  |
| CCC(CC)O[C@@H]1C=C(C(=O)O)C[C@H](NCCCNc2cccc(Cl)c2C)[C@H]1NC(C)=O |  |  |  |  |  |  |  |  | pIC50 [17]: 7.51; pIC50 [18]: 9.23 |
| CCC(CC)O[C@@H]1C=C(C(=O)O)C[C@H](NCc2ccc(N3CCCC3)cc2)[C@H]1NC(C)=O | > 200000 nM | 8.74 | 8.64 | 8.67 | > 250000 nM | 5.63 | 8.19 | 6.66 |  |
| O=C(O)Cc1ccccc1Nc1c(Cl)cccc1Cl [DICLOFENAC] |  |  |  |  |  |  |  |  | CLint scaled at 10 min [6]: 101 mL/min/kg; half-life at 10 min [9]: 12.3 min; microsomal CLint at 10 min [10]: 112 µL/min/mg |
| CCC(CC)O[C@@H]1C=C(C(=O)O)C[C@H](N)[C@H]1NC(C)=O [OSELTAMIVIR CARBOXYLATE] | > 200000 nM |  |  |  | > 250000 nM | 6.05 |  | 7.40 |  |
| CC(C)[N+](C)(CCOC(=O)C1c2ccccc2Oc2ccccc21)C(C)C [PROPANTHELINE BROMIDE] |  |  |  |  |  |  |  |  | remaining at 1 h, 100 µM [19]: 16.8%; remaining at 0.5 h, 100 µM [20]: 44.6%; remaining at 10 min, 100 µM [21]: 73.4%; remaining at 0 min, 100 µM [26]: 100%; remaining at 2 h, 100 µM [30]: 1.8% |
| C[C@]12CC[C@H]3[C@@H](CCC4=CC(=O)CC[C@@]43C)[C@@H]1CC[C@@H]2O [TESTOSTERONE] |  |  |  |  |  |  |  |  | CLint scaled at 10 min [6]: 46.9 mL/min/kg; half-life at 10 min [9]: 26.6 min; microsomal CLint at 10 min [10]: 52.1 µL/min/mg |
| CC(=O)N[C@H]1[C@H]([C@H](O)[C@H](O)CO)OC(C(=O)O)=C[C@@H]1NC(=N)N [ZANAMIVIR] | > 200000 nM |  |  |  | > 250000 nM | 6.57 |  | 7.30 |  |
